Experimental findings from patent US20220031607A1, “INJECTION COMPOSITION CONTAINING FAB I INHIBITOR, AND PREPARATION METHOD THEREFOR” (CRYSTALGENOMICS, INC., priority 2019, published 2022) are described below.

Values after ≈ are worked out from the molar mass of the structure shown. Like-named read-outs stand apart in the source and are kept apart here.

Type in all cases: cell-based
Test [1] concerns Methicillin-resistant Staphylococcus aureus (MRSA) strains. The experiment in a line: Drug susceptibility (MIC) of MRSA clinical isolates. How it is done: (§1) In order to verify the inhibitory effect of the compound of formula 1 on antibiotic-resistant strains, drug susceptibility was evaluated by treating the compound of formula 1 with Staphylococcus aureus phenotype isolated from each patient. In an in vitro test for antibiotic development, the most important result can be MIC90 (minimum inhibitory concentration required to inhibit the growth of 90% of the total bacterial population). […] Appelbaum at Hershey Hospital who is recognized for its authority in the field of anti-infection worldwide.

The test system of test [2] is Methicillin-susceptible Staphylococcus aureus strains. The experiment in a line: Drug susceptibility (MIC) of methicillin-susceptible clinical isolates. How it is done: as §1
Test [3] has as its system Staphylococcus aureus ATCC 29213 (MSSA, standard strain). Nature of the test: Susceptibility test (MIC), standard strain. How it is done:
(§2) For the compound of formula 1, pharmacokinetic/pharmacodynamic experiments were conducted using a mouse infection model. To this end, experiments were conducted with Staphylococcus aureus ATCC 29213 (MSSA, standard strain) and 13B-382 (MRSA, clinical strain). As a medium, Mueller-Hinton broth or Cation-adjusted Mueller-Hinton broth was used. For the susceptibility test (minimum inhibitory concentration (MIC)), the compound of formula 1 was used.

Test [4] relates to Staphylococcus aureus 13B-382 (MRSA, clinical strain). Nature of the test: Susceptibility test (MIC), clinical strain. The method, then:
as §2

Setting [5] is: Staphylococcus aureus, MRSA, Methicillin-resistant, n = 100, read-out: MIC50.
Setting [6] is: Staphylococcus aureus, MRSA, Methicillin-resistant, n = 100, read-out: MIC90.
Setting [7] is: Staphylococcus aureus, Methicillin-susceptible, n = 103, read-out: MIC50.
[8] abbreviates: Staphylococcus aureus, Methicillin-susceptible, n = 103, read-out: MIC90.
[9] abbreviates: Methicillin-susceptible, n = 103.

In general, MIC50 refers to an inhibitory concentration at the 50% level, which refers to growth in some studies and to a panel of isolates in others. By MIC90 is commonly meant the lowest concentration that inhibits either 90% of growth or 90% of the strains tested, depending on the study. Usually MIC stands for the lowest concentration that inhibits growth of the organism.

Turning to `CC[C@H]1OC(=O)[C@H](C)[C@@H](O[C@H]2C[C@@](C)(OC)[C@@H](O)[C@H](C)O2)[C@H](C)[C@@H](O[C@@H]2O[C@H](C)C[C@H](N(C)C)[C@H]2O)[C@](C)(O)C[C@@H](C)CN(C)[C@H](C)[C@@H](O)[C@]1(C)O` [Azithromycin], the MIC50 in test [1] (setting [5]) is over 64 µg/mL; in test [2] (setting [7]) it was 1 µg/mL (≈ 1.34 µM). Besides, the MIC90 in test [1] (setting [6]) and in test [2] (setting [8]) was over 64 µg/mL in each case.

In the case of `CCCCCCCCCC(=O)N[C@@H](Cc1c[nH]c2ccccc12)C(=O)N[C@H](CC(N)=O)C(=O)N[C@@H](CC(=O)O)C(=O)N[C@@H]1C(=O)NCC(=O)N[C@@H](CCCN)C(=O)N[C@@H](CC(=O)O)C(=O)N[C@H](C)C(=O)N[C@@H](CC(=O)O)C(=O)NCC(=O)N[C@H](CO)C(=O)N[C@@H]([C@H](C)CC(=O)O)C(=O)N[C@@H](CC(=O)c2ccccc2N)C(=O)O[C@@H]1C` [Daptomycin], the “MIC Range” value in test [1] (Methicillin-resistant, n = 100) lay within 0.25 to 4.0 µg/mL; in test [2] (setting [9]), 0.25 to 2.0 µg/mL. Besides, the results for the MIC50 in test [1] (setting [5]) and in test [2] (setting [7]) were 0.5 µg/mL (≈ 0.309 µM) and 1 µg/mL (≈ 0.617 µM), respectively. Further, the MIC90 in test [1] (setting [6]) was 0.5 µg/mL (≈ 0.309 µM); in test [2] (setting [8]), 1 µg/mL (≈ 0.617 µM).

Regarding `C[C@H]1COc2c(N3CCN(C)CC3)c(F)cc3c(=O)c(C(=O)O)cn1c23` [Levofloxacin], the MIC50 in test [1] (setting [5]) was 1 µg/mL (≈ 2.77 µM); in test [2] (setting [7]), 0.25 µg/mL (≈ 0.692 µM). Further, the MIC90 is over 32 µg/mL in test [1] (setting [6]) and 4 µg/mL (≈ 11.1 µM) in test [2] (setting [8]). Also, in test [2] (setting [9]), the “MIC Range” value was at most 0.06 to 32.0 µg/mL.

For the compound `CC(=O)NC[C@H]1CN(c2ccc(N3CCOCC3)c(F)c2)C(=O)O1` [Linezolid], the “MIC Range” value in test [1] (Methicillin-resistant, n = 100) was 0.25 to 2.0 µg/mL; in test [2] (setting [9]), 0.25 to 2.0 µg/mL. For the same compound, the MIC50 in test [1] (setting [5]) and in test [2] (setting [7]) was 1 µg/mL (≈ 2.96 µM) in each case. The MIC90 in test [1] (setting [6]) and in test [2] (setting [8]) was 2 µg/mL (≈ 5.93 µM) each time.

On to `Cc1onc(-c2ccccc2)c1C(=O)N[C@@H]1C(=O)N2[C@@H]1SC(C)(C)[C@@H]2C(=O)O` [Oxacillin], for which the MIC in test [3] (Staphylococcus aureus ATCC 29213, read-out: MIC) is 0.25 µg/mL (≈ 0.623 µM); in test [4] (Staphylococcus aureus 13B-382, read-out: MIC) it was 16 µg/mL (≈ 39.9 µM).

As to `CN[C@H](CC(C)C)C(=O)N[C@H]1C(=O)N[C@@H](CC(N)=O)C(=O)N[C@H]2C(=O)N[C@H]3C(=O)N[C@H](C(=O)N[C@H](C(=O)O)c4cc(O)cc(O)c4-c4cc3ccc4O)[C@H](O)c3ccc(c(Cl)c3)Oc3cc2cc(c3O[C@@H]2O[C@H](CO)[C@@H](O)[C@H](O)[C@H]2O[C@H]2C[C@](C)(N)[C@H](O)[C@H](C)O2)Oc2ccc(cc2Cl)[C@H]1O` [Vancomycin], the MIC in test [3] (Staphylococcus aureus) is 0.5 µg/mL (≈ 0.345 µM); in test [1] (Staphylococcus aureus, MRSA / VRSA), over 64 µg/mL; in test [4] (Staphylococcus aureus), 1 µg/mL (≈ 0.69 µM). The MIC50 is 1 µg/mL (≈ 0.69 µM) in test [1] (Staphylococcus aureus, MRSA) and 1 µg/mL (≈ 0.69 µM) in test [2] (Staphylococcus aureus). Moreover, the MIC90 stood at 2 µg/mL (≈ 1.38 µM) in test [1] (Staphylococcus aureus, MRSA) and 2 µg/mL (≈ 1.38 µM) in test [2] (Staphylococcus aureus). Besides, in test [2] (setting [9]), the “MIC Range” value is 1.0 to 2.0 µg/mL.

In test [1] (Methicillin-resistant, n = 100), Teicoplanin registered an MIC50 of 1 µg/mL and an MIC90 of 2 µg/mL. Moreover, in test [2] (setting [9]), the MIC50 came to 1 µg/mL, the MIC90 came out at 2 µg/mL and the “MIC Range” value is 0.125 to 8.0 µg/mL.
